This passage reports Activity results from ChEMBL document CHEMBL4342475, “Structure-Bioactivity Relationships of Lapatinib Derived Analogs against Schistosoma mansoni” (ACS Med Chem Lett, 2020).

What all share (assay type): functional, organism-based
The test system of experiment [1] is Schistosoma mansoni. The experiment can be described thus: Antiparasitic activity against Schistosoma mansoni infected in Hamster assessed as severity score at 10 uM incubated for 48 hrs.
Experiment [2] concerns Schistosoma mansoni. The experiment can be described thus: Antiparasitic activity against Schistosoma mansoni infected in Hamster assessed as severity score at 10 uM incubated for 24 hrs.
Experiment [3] has as its system Schistosoma mansoni. The experiment can be described thus: Antiparasitic activity against Schistosoma mansoni infected in Hamster assessed as severity score at 10 uM incubated for 1 hr.
In experiment [4] the test system is Schistosoma mansoni. The experiment can be described thus: Antiparasitic activity against Schistosoma mansoni infected in Hamster assessed as severity score at 10 uM incubated for 5 hrs.

Calls of active or inactive are those of the source. The rule behind the calls is not given here.

For `CC(C)(C)OC(=O)N1CCN(c2ncc(-c3ccc4c(Nc5cnccn5)ccnc4c3)cn2)CC1`, the outcome in the experiment with Schistosoma mansoni [1], with Schistosoma mansoni [2], in the experiment with Schistosoma mansoni [3] and in the experiment on Schistosoma mansoni [4] was inactive.

In the case of `CCCN1CCN(c2ncc(-c3ccc4c(Nc5cnccn5)ccnc4c3)cn2)CC1`, in the experiment with Schistosoma mansoni [1], the outcome was Active. For the same molecule, the result in the experiment on Schistosoma mansoni [2], in the experiment with Schistosoma mansoni [3] and in the experiment with Schistosoma mansoni [4] was inactive.

For `Cc1c(-c2cnc(N3CCN(C)CC3)nc2)ccc2c(Nc3cnccn3)ccnc12`, the result in the experiment on Schistosoma mansoni [1], with Schistosoma mansoni [2], with Schistosoma mansoni [3] and with Schistosoma mansoni [4] was inactive.

With `CN1CCN(c2ncc(-c3ccc4c(N[C@@H]5CCCC[C@H]5O)ccnc4c3)cn2)CC1`, the result with Schistosoma mansoni [1], in the experiment on Schistosoma mansoni [2], in the experiment with Schistosoma mansoni [3] and in the experiment on Schistosoma mansoni [4] was inactive.

For `COc1ccc(NC(=O)c2ccc(-c3cnc(N4CCCN(C)CC4)nc3)cc2O)cc1Cl`, the result in the experiment on Schistosoma mansoni [1] was Active. The outcome in the experiment on Schistosoma mansoni [2], in the experiment on Schistosoma mansoni [3] and in the experiment with Schistosoma mansoni [4] was inactive.

In the case of `CN1CCCN(c2ncc(-c3ccc4c(Nc5cnccn5)ccnc4c3)cn2)CC1`, the result with Schistosoma mansoni [1], in the experiment on Schistosoma mansoni [2], in the experiment with Schistosoma mansoni [3] and in the experiment on Schistosoma mansoni [4] was inactive.

Take `O=C(O)C1CCCN1c1ncc(-c2ccc3c(Nc4cnccn4)ccnc3c2)cn1` (configuration not stated): the outcome in the experiment with Schistosoma mansoni [1], in the experiment with Schistosoma mansoni [2], in the experiment with Schistosoma mansoni [3] and in the experiment with Schistosoma mansoni [4] was inactive.

As for `CCN1CCN(c2ncc(-c3ccc4c(Nc5cnccn5)ccnc4c3)cn2)CC1`, the result in the experiment with Schistosoma mansoni [1], with Schistosoma mansoni [2], with Schistosoma mansoni [3] and with Schistosoma mansoni [4] was inactive.

In the case of `CN1CCN(c2ncc(-c3ccc4c(NC5CCOCC5)ccnc4c3)cn2)CC1`, the result in the experiment on Schistosoma mansoni [1], in the experiment on Schistosoma mansoni [2], in the experiment with Schistosoma mansoni [3] and in the experiment with Schistosoma mansoni [4] was inactive.

In the case of `Cc1cnc(Nc2ccnc3cc(-c4cnc(N5CCCN(C)CC5)nc4)ccc23)cn1`, in the experiment on Schistosoma mansoni [1], the outcome was Active. Further, the result in the experiment on Schistosoma mansoni [3] and in the experiment on Schistosoma mansoni [4] was inactive.

Turning to `CN1CCN(c2ncc(-c3ccc4c(NCCN5CCCC5)ccnc4c3)cn2)CC1`, the result with Schistosoma mansoni [1], in the experiment with Schistosoma mansoni [2], with Schistosoma mansoni [3] and in the experiment on Schistosoma mansoni [4] was inactive.

Turning to `COC(=O)C1CCCN1c1ncc(-c2ccc3c(Nc4cnccn4)ccnc3c2)cn1` (configuration not stated), in the experiment with Schistosoma mansoni [1], the result was Active. The outcome in the experiment on Schistosoma mansoni [3] and in the experiment with Schistosoma mansoni [4] was inactive.

`CN1CCN(c2ncc(-c3ccc4c(Nc5cnccn5)ccnc4c3)cn2)CC1`: the outcome in the experiment on Schistosoma mansoni [1], with Schistosoma mansoni [2], in the experiment on Schistosoma mansoni [3] and in the experiment on Schistosoma mansoni [4] was inactive.

For `CN1CCN(c2ncc(-c3ccc4c(NCC5CCOCC5)ccnc4c3)cn2)CC1`, the result in the experiment with Schistosoma mansoni [1], in the experiment on Schistosoma mansoni [2], in the experiment on Schistosoma mansoni [3] and in the experiment on Schistosoma mansoni [4] was inactive.

Consider `CN(CCNc1ncc(-c2ccc3c(Nc4cnccn4)ccnc3c2)cn1)C(=O)OC(C)(C)C`, for which the outcome in the experiment with Schistosoma mansoni [1] was Active. The result in the experiment with Schistosoma mansoni [2], in the experiment with Schistosoma mansoni [3] and in the experiment with Schistosoma mansoni [4] was inactive.

With `CN1CCN(c2ncc(-c3ccc4c(NC5CCC(N(C)C)CC5)ccnc4c3)cn2)CC1` (configuration not stated), the outcome with Schistosoma mansoni [1], in the experiment on Schistosoma mansoni [2], with Schistosoma mansoni [3] and in the experiment with Schistosoma mansoni [4] was inactive.
